From the NIST ThermoML archive (doi:10.1021/je5010214)
± gives the expanded uncertainty stated by the source.

Details: Liquid, Vibrating tube method

CC(C)CO [2-methyl-1-propanol]
Details	mass density [kg/m3]
283.15 K, 89.4 kPa	809.726 ± 0.81
283.15 K, 478.2 kPa	810.123 ± 0.81
283.15 K, 489.9 kPa	810.142 ± 0.81
283.15 K, 930.2 kPa	810.437 ± 0.81
283.15 K, 1027.3 kPa	810.557 ± 0.81
283.15 K, 2172.1 kPa	811.348 ± 0.81
283.15 K, 2992.9 kPa	811.865 ± 0.81
283.15 K, 4993.8 kPa	813.245 ± 0.81
283.15 K, 6906.9 kPa	814.669 ± 0.81
283.15 K, 8995.7 kPa	816.167 ± 0.81
283.15 K, 10003 kPa	816.885 ± 0.82
283.15 K, 12183 kPa	818.287 ± 0.82
283.15 K, 14910 kPa	820.439 ± 0.82
283.15 K, 17915 kPa	822.056 ± 0.83
283.15 K, 20110 kPa	823.875 ± 0.83
283.15 K, 22168 kPa	825.177 ± 0.83
283.15 K, 24886 kPa	826.625 ± 0.84
283.15 K, 27713 kPa	828.29 ± 0.84
283.15 K, 30148 kPa	829.717 ± 0.85
283.15 K, 32117 kPa	830.745 ± 0.85
283.15 K, 33086 kPa	831.522 ± 0.85
283.15 K, 33288 kPa	831.507 ± 0.85
283.15 K, 34077 kPa	832.073 ± 0.85
283.15 K, 35107 kPa	832.469 ± 0.85
283.15 K, 38030 kPa	834.322 ± 0.86
283.15 K, 44591 kPa	837.752 ± 0.87
283.15 K, 54994 kPa	843.308 ± 0.89
283.15 K, 57756 kPa	844.723 ± 0.9
283.15 K, 59886 kPa	845.575 ± 0.9
283.15 K, 61822 kPa	846.524 ± 0.91
283.15 K, 64894 kPa	848.158 ± 0.91
283.16 K, 289.9 kPa	810.056 ± 0.81
283.16 K, 39967 kPa	835.34 ± 0.86
283.16 K, 41406 kPa	835.909 ± 0.87
283.16 K, 48034 kPa	839.7 ± 0.88
283.16 K, 49830 kPa	840.462 ± 0.88
283.16 K, 51952 kPa	841.796 ± 0.89
283.16 K, 66072 kPa	848.566 ± 0.91
288.15 K, 85.3 kPa	806.159 ± 0.81
288.15 K, 351.1 kPa	806.381 ± 0.81
288.15 K, 718.6 kPa	806.519 ± 0.81
288.15 K, 928.3 kPa	806.632 ± 0.81
288.15 K, 1132.3 kPa	807.006 ± 0.81
288.15 K, 1931.6 kPa	807.42 ± 0.81
288.15 K, 3433.9 kPa	808.429 ± 0.81
288.15 K, 5023.9 kPa	809.62 ± 0.81
288.15 K, 6893.9 kPa	810.983 ± 0.81
288.15 K, 8406.4 kPa	812.175 ± 0.81
288.15 K, 12498 kPa	814.345 ± 0.82
288.15 K, 13061 kPa	815.035 ± 0.82
288.15 K, 15159 kPa	815.414 ± 0.82
288.15 K, 16159 kPa	816.818 ± 0.82
288.15 K, 17078 kPa	817.715 ± 0.83
288.15 K, 19062 kPa	818.283 ± 0.83
288.15 K, 20120 kPa	819.399 ± 0.83
288.15 K, 21983 kPa	820.3 ± 0.83
288.15 K, 22948 kPa	821.319 ± 0.84
288.15 K, 24955 kPa	821.837 ± 0.84
288.15 K, 31002 kPa	825.774 ± 0.85
288.15 K, 36056 kPa	828.477 ± 0.86
288.15 K, 38602 kPa	829.859 ± 0.86
288.15 K, 40698 kPa	831.363 ± 0.87
288.15 K, 42984 kPa	832.313 ± 0.87
288.15 K, 44991 kPa	833.694 ± 0.88
288.15 K, 46862 kPa	834.848 ± 0.88
288.15 K, 49740 kPa	835.692 ± 0.89
288.15 K, 53748 kPa	837.321 ± 0.9
288.15 K, 55203 kPa	839.369 ± 0.9
288.15 K, 60810 kPa	841.135 ± 0.91
288.15 K, 65611 kPa	844.144 ± 0.92
288.16 K, 549.3 kPa	806.494 ± 0.81
288.16 K, 9959.1 kPa	813.184 ± 0.82
288.16 K, 27092 kPa	823.174 ± 0.84
288.16 K, 29078 kPa	824.509 ± 0.85
288.16 K, 33729 kPa	826.936 ± 0.85
288.16 K, 57016 kPa	840.129 ± 0.9
288.16 K, 62338 kPa	843.086 ± 0.91
293.15 K, 63.4 kPa	802.054 ± 0.81
293.15 K, 194.5 kPa	802.316 ± 0.81
293.15 K, 662.6 kPa	802.599 ± 0.81
293.15 K, 5367.8 kPa	806.019 ± 0.81
293.15 K, 5979.3 kPa	806.327 ± 0.81
293.15 K, 8031.4 kPa	807.842 ± 0.81
293.15 K, 12279 kPa	811.587 ± 0.82
293.15 K, 16110 kPa	814.191 ± 0.83
293.15 K, 18001 kPa	815.385 ± 0.83
293.15 K, 30253 kPa	822.999 ± 0.85
293.15 K, 32967 kPa	824.811 ± 0.85
293.15 K, 42984 kPa	830.218 ± 0.87
293.15 K, 44913 kPa	831.278 ± 0.88
293.15 K, 47933 kPa	833.008 ± 0.88
293.15 K, 50078 kPa	834.047 ± 0.89
293.16 K, 310.4 kPa	802.406 ± 0.81
293.16 K, 463.5 kPa	802.612 ± 0.81
293.16 K, 1059.7 kPa	802.921 ± 0.81
293.16 K, 2037.1 kPa	803.747 ± 0.81
293.16 K, 2922 kPa	804.089 ± 0.81
293.16 K, 3431.5 kPa	804.593 ± 0.81
293.16 K, 5298.8 kPa	805.894 ± 0.81
293.16 K, 7111.4 kPa	807.238 ± 0.81
293.16 K, 9968.5 kPa	809.474 ± 0.82
293.16 K, 14057 kPa	812.743 ± 0.82
293.16 K, 20853 kPa	817.066 ± 0.83
293.16 K, 22118 kPa	818.157 ± 0.83
293.16 K, 24057 kPa	819.188 ± 0.84
293.16 K, 25922 kPa	820.412 ± 0.84
293.16 K, 27187 kPa	821.228 ± 0.84
293.16 K, 34602 kPa	825.683 ± 0.86
293.16 K, 38051 kPa	827.567 ± 0.86
293.16 K, 40103 kPa	828.763 ± 0.87
293.16 K, 52135 kPa	835.387 ± 0.89
293.16 K, 55036 kPa	836.79 ± 0.9
293.16 K, 58004 kPa	838.271 ± 0.91
293.16 K, 60107 kPa	839.502 ± 0.91
293.16 K, 62061 kPa	840.325 ± 0.91
293.16 K, 66037 kPa	842.335 ± 0.92
298.15 K, 122.4 kPa	798.281 ± 0.81
298.15 K, 162.6 kPa	798.371 ± 0.81
298.15 K, 405.5 kPa	798.562 ± 0.81
298.15 K, 632.8 kPa	798.678 ± 0.81
298.15 K, 956.4 kPa	798.832 ± 0.81
298.15 K, 6988.8 kPa	803.491 ± 0.81
298.15 K, 14555 kPa	809.311 ± 0.82
298.15 K, 18284 kPa	812.068 ± 0.83
298.15 K, 20164 kPa	813.104 ± 0.83
298.15 K, 22781 kPa	814.894 ± 0.84
298.15 K, 25076 kPa	816.275 ± 0.84
298.15 K, 27604 kPa	817.904 ± 0.85
298.15 K, 30046 kPa	819.519 ± 0.85
298.15 K, 32326 kPa	821.055 ± 0.85
298.15 K, 33317 kPa	821.248 ± 0.86
298.15 K, 44911 kPa	827.946 ± 0.88
298.15 K, 60006 kPa	836.063 ± 0.91
298.15 K, 62079 kPa	837.121 ± 0.92
298.15 K, 65330 kPa	838.566 ± 0.93
298.15 K, 66093 kPa	839.052 ± 0.93
298.16 K, 1152.2 kPa	799.011 ± 0.81
298.16 K, 2046.3 kPa	799.798 ± 0.81
298.16 K, 3021.1 kPa	800.42 ± 0.81
298.16 K, 5107.4 kPa	801.927 ± 0.81
298.16 K, 9044.3 kPa	804.777 ± 0.82
298.16 K, 9996.8 kPa	805.681 ± 0.82
298.16 K, 11947 kPa	807.14 ± 0.82
298.16 K, 33072 kPa	821.357 ± 0.86
298.16 K, 34997 kPa	822.338 ± 0.86
298.16 K, 37948 kPa	823.936 ± 0.87
298.16 K, 39972 kPa	825.207 ± 0.87
298.16 K, 41983 kPa	826.345 ± 0.87
298.16 K, 48045 kPa	829.528 ± 0.89
298.16 K, 49997 kPa	830.783 ± 0.89
298.16 K, 52020 kPa	832.399 ± 0.9
298.16 K, 54851 kPa	833.381 ± 0.9
298.16 K, 57898 kPa	835.245 ± 0.91
303.15 K, 50.6 kPa	793.736 ± 0.81
303.15 K, 974.4 kPa	794.496 ± 0.81
303.15 K, 1922.5 kPa	795.367 ± 0.81
303.15 K, 9012.3 kPa	801.25 ± 0.82
303.15 K, 10062 kPa	802.346 ± 0.82
303.15 K, 14908 kPa	805.823 ± 0.83
303.15 K, 18109 kPa	808.133 ± 0.83
